Measurements taken from the supplement of paper PMC10307832.

Tests used:
Test in all cases: relative viability (nuclei count vs DMSO), 5 days (fraction); higher = more cells survive
[1] = compound: COc1cc([C@@H]2c3cc4c(cc3[C@@H](O[C@@H]3O[C@@H]5CO[C@@H](C)O[C@H]5[C@H](O)[C@H]3O)[C@H]3COC(=O)[C@H]23)OCO4)cc(OC)c1O [Etoposide] + CC1(C)CCC(c2ccc(Cl)cc2)=C(CN2CCN(c3ccc(C(=O)NS(=O)(=O)c4ccc(N[C@H](CCN5CCOCC5)CSc5ccccc5)c(S(=O)(=O)C(F)(F)F)c4)cc3)CC2)C1 [Navitoclax] (partner 0.5 µM)
In short: (§1)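 Values are medians from duplicate plates. Each reflects relative viability, defined as the nuclei count of treated wells over that of vehicle wells. Lung cancer cell lines in 1536-well plates were pin-tool dosed one day after seeding with one drug alone or with a fixed anchor-drug dose plus five library-drug doses (not always all listed) in √10 steps, then fixed, stained and imaged at 4× after 5 days.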

[2] = compound: CC1=C(N=C(N=C1N)[C@H](CC(=O)N)NC[C@@H](C(=O)N)N)C(=O)N[C@@H]([C@H](C2=CN=CN2)OC3C(C(C(C(O3)CO)O)O)OC4C(C(C(C(O4)CO)O)OC(=O)N)O)C(=O)N[C@H](C)[C@H]([C@H](C)C(=O)N[C@@H]([C@@H](C)O)C(=O)NCCC5=NC(=CS5)C6=NC(=CS6)C(=O)NCCC[S+](C)C)O [Bleomycin] + COc1cc2c(Oc3ccc(NC(=O)C4(C(=O)Nc5ccc(F)cc5)CC4)cc3F)ccnc2cc1OCCCN1CCOCC1 [Foretinib] (partner 0.25 µM); conditions: main component drawn
In short: as §1

[3] = compound: CC1=C(N=C(N=C1N)[C@H](CC(=O)N)NC[C@@H](C(=O)N)N)C(=O)N[C@@H]([C@H](C2=CN=CN2)OC3C(C(C(C(O3)CO)O)O)OC4C(C(C(C(O4)CO)O)OC(=O)N)O)C(=O)N[C@H](C)[C@H]([C@H](C)C(=O)N[C@@H]([C@@H](C)O)C(=O)NCCC5=NC(=CS5)C6=NC(=CS6)C(=O)NCCC[S+](C)C)O [Bleomycin] + O=C(CCCCCCC(=O)Nc1ccccc1)NO [Vorinostat] (partner 1 µM); conditions: main component drawn
In short: as §1

[4] = compound: COc1cc([C@@H]2c3cc4c(cc3[C@@H](O[C@@H]3O[C@@H]5CO[C@@H](C)O[C@H]5[C@H](O)[C@H]3O)[C@H]3COC(=O)[C@H]23)OCO4)cc(OC)c1O [Etoposide] + CC(=O)Nc1cccc(-n2c(=O)n(C3CC3)c(=O)c3c(Nc4ccc(I)cc4F)n(C)c(=O)c(C)c32)c1 [Trametinib] (partner 0.02 µM)
In short: as §1

Cell Line	relative viability ([1]; first compound 0.01 µM)	relative viability ([1]; first compound 0.03162 µM)	relative viability ([1]; first compound 0.1 µM)	relative viability ([1]; first compound 0.3162 µM)	relative viability ([1]; first compound 1 µM)	relative viability ([2]; first compound 0.01 µM)	relative viability ([2]; first compound 0.03162 µM)	relative viability ([2]; first compound 0.1 µM)	relative viability ([2]; first compound 0.3162 µM)	relative viability ([2]; first compound 1 µM)	relative viability ([3]; first compound 0.01 µM)	relative viability ([3]; first compound 0.03162 µM)	relative viability ([3]; first compound 0.1 µM)	relative viability ([3]; first compound 0.3162 µM)	relative viability ([3]; first compound 1 µM)	relative viability ([4]; first compound 0.01 µM)	relative viability ([4]; first compound 0.03162 µM)	relative viability ([4]; first compound 0.1 µM)	relative viability ([4]; first compound 0.3162 µM)	relative viability ([4]; first compound 1 µM)
201T	1.25	1.23	1.13	1.14	1.02	0.902	0.928	0.825	0.548	0.336	0.79	0.839	0.805	0.732	0.553	0.73	0.76	0.707	0.602	0.544
A549	1.25	1.04	0.46	0.157	0.0716	0.812	0.917	0.635	0.182	0.0665	–	–	–	–	–	–	–	–	–	–
A-427	0.963	0.937	0.525	0.53	0.256	0.862	0.873	0.935	0.481	0.284	0.753	0.768	0.717	0.46	0.271	0.695	0.812	0.621	0.47	0.296
ABC-1	–	–	–	–	–	0.773	0.9	0.579	0.346	0.24	1.24	1.28	1.07	0.684	0.579	–	–	–	–	–
BEN	0.0656	0.0585	–	0.057	0.0632	0.626	0.582	0.587	0.379	0.329	0.63	0.609	0.481	0.531	0.497	0.919	1.01	–	1.05	0.852
CAL-12T	1.13	1.26	1.17	0.752	0.791	0.993	0.706	0.579	0.199	0.174	0.542	0.532	0.351	0.166	0.155	0.238	0.43	0.241	0.367	0.211
COR-L23	0.935	1.02	1.07	0.554	0.236	0.825	0.781	0.412	0.154	0.144	0.273	0.392	0.218	0.104	0.0886	0.578	0.666	0.348	0.488	0.233
COR-L 105	0.745	0.802	0.79	0.516	0.586	0.895	1	0.952	0.761	0.498	0.716	0.719	0.617	0.435	0.486	0.443	0.479	0.439	0.437	0.398
Calu-6	0.883	0.722	0.828	0.418	0.213	0.646	0.549	0.29	0.132	0.107	–	–	–	–	–	–	–	–	–	–
ChaGo-K-1	1.11	0.956	0.755	0.391	0.274	0.831	0.75	0.754	0.507	0.444	0.512	0.526	0.483	0.303	0.279	0.881	0.905	0.752	0.394	0.248
EBC-1	0.319	0.41	0.254	0.378	0.225	0.104	0.106	0.107	0.106	0.105	–	–	–	–	–	–	–	–	–	–
EKVX	0.892	0.983	0.759	0.446	0.251	0.707	0.889	0.423	0.335	0.314	0.724	0.611	0.607	0.366	0.411	0.287	0.382	0.303	0.295	0.169
EMC-BAC-2	1.08	1.05	0.83	0.297	0.161	0.859	0.74	0.63	0.35	0.247	–	0.472	0.36	0.28	0.18	0.818	0.774	0.531	0.364	0.308
EPLC-272H	1.22	1.25	0.71	0.962	0.436	0.61	0.653	0.51	0.17	0.1	0.296	0.323	0.223	0.12	0.0952	0.33	0.284	0.254	0.267	0.267
H3255	0.538	0.556	0.334	0.348	0.14	0.705	0.813	0.699	0.553	0.432	0.737	0.891	0.538	0.682	0.363	0.578	0.707	0.411	0.57	0.347
HARA	1.11	1.16	1.17	0.864	0.337	0.794	0.793	0.777	0.397	0.379	0.458	0.469	0.317	0.258	0.173	0.628	0.638	1.01	0.592	0.353
